Source: US6727264B1 (Synaptic Pharmaceutical Corporation, priority 2001, dated 2004)

The molecules below were run against rat MCH-1 (Rattus norvegicus, UniProt P97639) (assay: Radioligand binding assay at cloned rat MCH1 receptor ([3H] Compound A)). Details: cloned rat MCH1 receptor; 0.08 nM [3H] Compound A; Peakr293 cell membranes; read-out: Ki (nM) rMCH1.
Parameters: host or cells: Peak rapid 293 (Peakr293) cells, transient calcium phosphate transfection, membranes

Sequence of rat MCH-1 (P97639 whole entry): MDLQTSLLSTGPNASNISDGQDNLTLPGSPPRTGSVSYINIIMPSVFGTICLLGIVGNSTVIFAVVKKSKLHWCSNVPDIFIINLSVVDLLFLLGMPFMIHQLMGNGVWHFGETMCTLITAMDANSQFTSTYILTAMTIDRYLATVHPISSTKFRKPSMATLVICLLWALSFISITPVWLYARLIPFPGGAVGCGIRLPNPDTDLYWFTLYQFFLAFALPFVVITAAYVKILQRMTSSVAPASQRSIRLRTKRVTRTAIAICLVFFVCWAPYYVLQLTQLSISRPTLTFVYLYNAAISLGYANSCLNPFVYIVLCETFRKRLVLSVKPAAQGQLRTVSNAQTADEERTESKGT

SMILES	Ki [nM]
CC(C)C(=O)Nc1cccc(C2CCN(CCCc3c(-c4ccc(F)cc4)n(C)c4ccccc34)CC2)c1 [Example 700]	2
COc1ccc2[nH]c(-c3cccc(F)c3)c(CCCN3CCC(c4cccc(NC(=O)C(C)C)c4)CC3)c2c1 [Example 701]	2.5
CC(C)C(=O)Nc1cccc(C2CCN(CCCc3c(-c4cccc(F)c4)n(-c4ccccc4)c4ccccc34)CC2)c1 [Example 702]	27
CC(C)C(=O)Nc1cccc(C2CCN(CCCc3c(-c4ccc(Cl)cc4)[nH]c4ccc(OC(F)(F)F)cc34)CC2)c1 [Example 703]	16.6
CC(C)C(=O)Nc1cccc(C2CCN(CCCc3c(-c4cccc(F)c4)[nH]c4ccccc34)CC2)c1 [Example 704]	1.2
CC(C)C(=O)Nc1cccc(C2CCN(CCCc3c(-c4cccc(F)c4)n(C)c4ccccc34)CC2)c1 [Example 705]	8.5
Cc1ccc2[nH]c(-c3cccc(F)c3)c(CCCN3CCC(c4cccc(NC(=O)C(C)C)c4)CC3)c2c1 [Example 706]	4.2
CC(C)C(=O)Nc1cccc(C2CCN(CCCc3c(-c4ccc(Cl)cc4)[nH]c4c3ccc3ccccc34)CC2)c1 [Example 707]	19.6
CC(C)C(=O)Nc1cccc(C2CCN(CCCc3c(-c4ccc(Cl)cc4)[nH]c4ccccc34)CC2)c1 [Example 708]	3.8
CC(C)C(=O)Nc1cccc(C2CCN(CCCc3c(-c4ccccc4F)n(C)c4ccccc34)CC2)c1 [Example 709]	1.3
Cc1cccc2c(CCCN3CCC(c4cccc(NC(=O)C(C)C)c4)CC3)c(-c3ccccc3F)[nH]c12 [Example 710]	6.9
CC(C)C(=O)Nc1cccc(C2CCN(CCCc3c(-c4ccccc4F)n(-c4ccccc4)c4ccccc34)CC2)c1 [Example 711]	90.5
COc1ccc2[nH]c(-c3ccccc3F)c(CCCN3CCC(c4cccc(NC(=O)C(C)C)c4)CC3)c2c1 [Example 712]	8.6
COc1ccc2[nH]c(-c3ccc(Cl)cc3)c(CCCN3CCC(c4cccc(NC(=O)C(C)C)c4)CC3)c2c1 [Example 713]	7.7
CC(C)C(=O)Nc1cccc(C2CCN(CCCc3c(-c4ccc(F)cc4)[nH]c4c3ccc3ccccc34)CC2)c1 [Example 714]	4.7
CC(C)C(=O)Nc1cccc(C2CCN(CCCc3c(-c4ccc(F)cc4)[nH]c4ccc(OC(F)(F)F)cc34)CC2)c1 [Example 715]	4.2
Cc1cccc2c(CCCN3CCC(c4cccc(NC(=O)C(C)C)c4)CC3)c(-c3ccc(F)cc3)[nH]c12 [Example 716]	4.5
CC(C)C(=O)Nc1cccc(C2CCN(CCCc3c(-c4ccc(F)cc4)[nH]c4ccccc34)CC2)c1 [Example 717]	1.3
Cc1ccc2[nH]c(-c3ccc(F)cc3)c(CCCN3CCC(c4cccc(NC(=O)C(C)C)c4)CC3)c2c1 [Example 718]	3.4
Cc1cccc2c(CCCN3CCC(c4cccc(NC(=O)C(C)C)c4)CC3)c(-c3ccc(Cl)cc3)[nH]c12 [Example 719]	14.9
Cc1ccc2[nH]c(-c3ccc(Cl)cc3)c(CCCN3CCC(c4cccc(NC(=O)C(C)C)c4)CC3)c2c1 [Example 720]	12.5
CC(C)C(=O)Nc1cccc(C2CCN(CCCc3c(-c4ccc(Cl)cc4)n(-c4ccccc4)c4ccccc34)CC2)c1 [Example 721]	75.3
Cc1cccc2c(CCCN3CCC(c4cccc(NC(=O)C(C)C)c4)CC3)c(-c3cccc(Cl)c3)[nH]c12 [Example 722]	6.4

SMILES	Ki [nM]
CC(C)C(=O)Nc1cccc(C2CCN(CCCc3c(-c4cccc(Cl)c4)[nH]c4ccc(OC(F)(F)F)cc34)CC2)c1 [Example 723]	9.2
CC(C)C(=O)Nc1cccc(C2CCN(CCCc3c(-c4cccc(Cl)c4)n(C)c4ccccc34)CC2)c1 [Example 724]	5
CC(C)C(=O)Nc1cccc(C2CCN(CCCc3c(-c4cccc(Cl)c4)n(-c4ccccc4)c4ccccc34)CC2)c1 [Example 725]	152
COc1ccc2[nH]c(-c3cccc(Cl)c3)c(CCCN3CCC(c4cccc(NC(=O)C(C)C)c4)CC3)c2c1 [Example 726]	5
Cc1ccc2[nH]c(-c3cccc(Cl)c3)c(CCCN3CCC(c4cccc(NC(=O)C(C)C)c4)CC3)c2c1 [Example 727]	3.4
CC(C)C(=O)Nc1cccc(C2CCN(CCCc3c(-c4cccc(Cl)c4)[nH]c4c3ccc3ccccc34)CC2)c1 [Example 728]	16.3
CC(C)C(=O)Nc1cccc(C2CCN(CCCc3c(-c4cccc(Cl)c4)[nH]c4ccccc34)CC2)c1 [Example 729]	1.7
CC(C)C(=O)Nc1cccc(C2CCN(CCCc3c(-c4ccccc4Cl)[nH]c4ccccc34)CC2)c1 [Example 730]	0.9
CC(C)C(=O)Nc1cccc(C2CCN(CCCc3c(-c4ccccc4Cl)[nH]c4ccc(OC(F)(F)F)cc34)CC2)c1 [Example 731]	9.9
CC(C)C(=O)Nc1cccc(C2CCN(CCCc3c(-c4ccccc4Cl)[nH]c4c3ccc3ccccc34)CC2)c1 [Example 732]	5.8
Cc1cccc2c(CCCN3CCC(c4cccc(NC(=O)C(C)C)c4)CC3)c(-c3ccccc3Cl)[nH]c12 [Example 733]	10
CC(C)C(=O)Nc1cccc(C2CCN(CCCc3c(-c4ccccc4Cl)n(-c4ccccc4)c4ccccc34)CC2)c1 [Example 734]	28.6
CC(C)C(=O)Nc1cccc(C2CCN(CCCc3c(-c4ccccc4Cl)n(C)c4ccccc34)CC2)c1 [Example 735]	1.1
Cc1ccc2[nH]c(-c3ccccc3Cl)c(CCCN3CCC(c4cccc(NC(=O)C(C)C)c4)CC3)c2c1 [Example 736]	5.7
CC(C)C(=O)Nc1cccc(C2CCN(CCCc3c(-c4cccc(I)c4)[nH]c4ccccc34)CC2)c1 [Example 737]	1
CC(C)C(=O)Nc1cccc(C2CCN(CCCc3c(-c4cccc(I)c4)n(C)c4ccccc34)CC2)c1 [Example 738]	10.2
CC(C)C(=O)Nc1cccc(C2CCN(CCCc3c(-c4cccc(I)c4)n(-c4ccccc4)c4ccccc34)CC2)c1 [Example 739]	214
CC(C)C(=O)Nc1cccc(C2CCN(CCCc3c(-c4cccc(I)c4)[nH]c4c3ccc3ccccc34)CC2)c1 [Example 740]	12.2
CC(C)C(=O)Nc1cccc(C2CCN(CCCc3c(-c4cccc(I)c4)[nH]c4ccc(OC(F)(F)F)cc34)CC2)c1 [Example 741]	2.8
Cc1ccc2[nH]c(-c3cccc(I)c3)c(CCCN3CCC(c4cccc(NC(=O)C(C)C)c4)CC3)c2c1 [Example 742]	1.4
Cc1cccc2c(CCCN3CCC(c4cccc(NC(=O)C(C)C)c4)CC3)c(-c3cccc(I)c3)[nH]c12 [Example 743]	4.1
CC(C)C(=O)Nc1cccc(C2CCN(CCCc3c(-c4ccc(I)cc4)[nH]c4ccc(OC(F)(F)F)cc34)CC2)c1 [Example 744]	47.1
Cc1ccc2[nH]c(-c3ccc(I)cc3)c(CCCN3CCC(c4cccc(NC(=O)C(C)C)c4)CC3)c2c1 [Example 745]	15.8

SMILES	Ki [nM]
Cc1cccc2c(CCCN3CCC(c4cccc(NC(=O)C(C)C)c4)CC3)c(-c3ccc(I)cc3)[nH]c12 [Example 746]	8
CC(C)C(=O)Nc1cccc(C2CCN(CCCc3c(-c4ccc(I)cc4)n(-c4ccccc4)c4ccccc34)CC2)c1 [Example 747]	161
CC(C)C(=O)Nc1cccc(C2CCN(CCCc3c(-c4ccc(I)cc4)n(C)c4ccccc34)CC2)c1 [Example 748]	3.1
CC(C)C(=O)Nc1cccc(C2CCN(CCCc3c(-c4ccc(I)cc4)[nH]c4c3ccc3ccccc34)CC2)c1 [Example 749]	23.2
CC(C)C(=O)Nc1cccc(C2CCN(CCCc3c(-c4ccc(I)cc4)[nH]c4ccccc34)CC2)c1 [Example 750]	2.6
CC(C)C(=O)Nc1cccc(C2CCN(CCCc3c(-c4cccc(Br)c4)[nH]c4ccc(OC(F)(F)F)cc34)CC2)c1 [Example 751]	12.4
CC(C)C(=O)Nc1cccc(C2CCN(CCCc3c(-c4ccc(Br)cc4)[nH]c4c3ccc3ccccc34)CC2)c1 [Example 752]	21.7
Cc1cccc2c(CCCN3CCC(c4cccc(NC(=O)C(C)C)c4)CC3)c(-c3ccc(Br)cc3)[nH]c12 [Example 753]	16.6
CC(C)C(=O)Nc1cccc(C2CCN(CCCc3c(-c4ccc(Br)cc4)[nH]c4ccc(OC(F)(F)F)cc34)CC2)c1 [Example 754]	49.2
CC(C)C(=O)Nc1cccc(C2CCN(CCCc3c(-c4cccc(Br)c4)[nH]c4c3ccc3ccccc34)CC2)c1 [Example 755]	23.8
CC(C)C(=O)Nc1cccc(C2CCN(CCCc3c(-c4ccc(Br)cc4)[nH]c4ccccc34)CC2)c1 [Example 756]	4.2
CC(C)C(=O)Nc1cccc(C2CCN(CCCc3c(-c4cccc(Br)c4)n(-c4ccccc4)c4ccccc34)CC2)c1 [Example 757]	6.9
CC(C)C(=O)Nc1cccc(C2CCN(CCCc3c(-c4cccc(Br)c4)n(C)c4ccccc34)CC2)c1 [Example 758]	110
CC(C)C(=O)Nc1cccc(C2CCN(CCCc3c(-c4ccc(Br)cc4)n(C)c4ccccc34)CC2)c1 [Example 759]	9.3
CC(C)C(=O)Nc1cccc(C2CCN(CCCc3c(-c4ccc(Br)cc4)n(-c4ccccc4)c4ccccc34)CC2)c1 [Example 760]	92.3
COc1ccc2[nH]c(-c3ccc(Br)cc3)c(CCCN3CCC(c4cccc(NC(=O)C(C)C)c4)CC3)c2c1 [Example 761]	15.9
Cc1cccc2c(CCCN3CCC(c4cccc(NC(=O)C(C)C)c4)CC3)c(-c3cccc(Br)c3)[nH]c12 [Example 762]	6.3
Cc1ccc2[nH]c(-c3cccc(Br)c3)c(CCCN3CCC(c4cccc(NC(=O)C(C)C)c4)CC3)c2c1 [Example 763]	1.9
Cc1ccc2[nH]c(-c3ccc(Br)cc3)c(CCCN3CCC(c4cccc(NC(=O)C(C)C)c4)CC3)c2c1 [Example 764]	14.6
COc1ccc2[nH]c(-c3cccc(Br)c3)c(CCCN3CCC(c4cccc(NC(=O)C(C)C)c4)CC3)c2c1 [Example 765]	6.5
CC(C)C(=O)Nc1cccc(C2CCN(CCCc3c(-c4cccc([N+](=O)[O-])c4)[nH]c4ccccc34)CC2)c1 [Example 766]	7.6
CC(C)C(=O)Nc1cccc(C2CCN(CCCc3c(-c4cccc([N+](=O)[O-])c4)[nH]c4c3ccc3ccccc34)CC2)c1 [Example 767]	34.8
